# From patent publication US8354539B2, “Indole derivatives as IKK2 inhibitors” (Glaxo Group Limited, priority 2009, dated 2013)
# Test system: polychromatic erythrocytes from rat bone marrow
# Test: Bone marrow micronucleus assay in rats
# Details: 20 mg/kg/day oral, once only, male rats, positive control
# Experimental: The objective of this study was to assess the potential of 5-[2-(1-methylethyl)-2,3-dihydro-1H-isoindol-5-yl]-3-(1-{[2-(methyloxy)ethyl]sulfonyl}-4-piperidinyl)-1H-indole-7-carboxamide in induce structural chromosomal damage and/or aneuploidy in vivo, in polychromatic erythrocytes from rat bone marrow, when administered to rats for two consecutive days.
# Crl: CD(SD) rats were used in this study.
# Doses of 500, 1000, 2000 mg/kg/day of 5-[2-(1-methylethyl)-2,3-dihydro-1H-isoindol-5-yl]-3-(1-{[2-(methyloxy)ethyl]sulfonyl}-4-piperidinyl)-1H-indole-7-carboxamide, or vehicle (0.5% (w/v) aqueous hydroxypropylmethylcellulose containing 0.1% (w/v) Tween 80), were given orally (by gavage) to groups of 3 male and 3 female rats. […]
# Doses of 1000 or 2000 mg/kg/day—5-[2-(1-methylethyl)-2,3-dihydro-1H-isoindol-5-yl]-3-(1-{[2-(methyloxy)ethyl]sulfonyl}-4-piperidinyl)-1H-indole-7-carboxamide or vehicle (0.5% (w/v) aqueous hydroxypropylmethylcellulose containing 0.1% (w/v) Tween 80) were given orally, by gavage, on two consecutive days to groups of 6 male rats. […] Smears were stained with acridine orange prior to analysis with fluorescense microscopy to determine the proportion of polychromatic erythrocytes in the total erythrocyte count (% PCE) and the number of micronucleated polychromatic erythrocytes (MPCE) per 2000 PCE analysed.
compound,measurement,value
"O=P1(N(CCCl)CCCl)NCCCO1 (centres unmarked) [Cyclophosphamide, cyclophosphamide]",Group Mean % PCE,46%
same,Group Mean MPCE,51.87 per 2000 PCE analysed
